Measured values: patent publication US20100120703A1, “COMPOSITIONS AND METHODS FOR TREATING CANCER” (priority 2007, published 2010)

Experiments:
[1] = system: Sprague Dawley (SD) rats; assay: Serum AST/ALT assay, progression stage; format: in vivo, rat
Protocol: ALT (Alanine aminotransferase) and AST (Aspartate aminotransferase) are two enzymes that are specifically located in the liver. These two enzymes normally distribute little in blood serum. When liver damage occurs, the hepatocytes break and these two enzymes are released into the blood. An AST/ALT assay was used to diagnose liver damage. Rat blood was collected in a 13 ml BD PLUS-SST II serum vacutainer and allowed to stand for 20 minutes on ice to coagulate. The vacutainer was then centrifuged at 3,500 rpm for 15 minutes. The upper layer serum was collected. The AST/ALT assay was performed within 2 days to minimize the loss of the enzymes.
The serum AST activity assay was measured by a Stanbio AST (UV-Rate) kit. Fifteen milliliters of ddH2O were added into one bottle of the reagent in the kit and mixed thoroughly according to the kit protocol. One milliliter of the reagent was incubated at 37° C. for at least 10 minutes for each reaction. […] Absorbance was measured at OD 340 nm. After incubation for 1 minute, a reading was taken and the reading at this point was counted as time zero. Readings were then taken at 30 second interval for 3 minutes. The change of absorbance per minute was calculated and the AST activity was calculated by the formula
The ALT assay was measured by a Stanbio […]. […]

[2] = system: Sprague Dawley (SD) rats; assay: DEN/CCl4-induced hepatoma in rats, promotion stage: liver observation and weight; format: in vivo, rat; conditions: 15 mg/kg oral daily for 28 weeks
Protocol: Sprague Dawley (SD) rats were used as the animal model in the in vivo experiments. Male SD rats (80-90 g body weight) were obtained from Laboratory Animal Services Center of The Chinese University of Hong Kong. The rats were housed in the rodent animal room with a 12 hour light-dark cycle and constant temperature of 25° C. Four rats were housed in each case. Food and water were given ad libitum. All the animals were observed and weighed daily.
The experiments were to induce hepatomas in rats. SIN was administered to the rats of treatment group at different stages. Chemical carcinogens were employed in the design of experiment to be able to induce hepatoma within a short time (Ha W. S. et al., 2001). Diethylnitrosamine (DEN) has been frequently used by other scientists to induce hepatoma. DEN administration in combined with CCl4 method was employed in the experiment to induce hepatoma in rats according to the established protocol (Kovalszky, I. et al., 1992).
Experiments of the promotion stage were to study the effect of SIN at the promotion stage of cancer development. Fifteen rats were randomly divided into 3 groups, a negative control group (5 rats), a positive control group (5 rats) and an SIN-treatment group (5 rats). […]
During the experiment, the body weight of the rat was monitored daily. […]

[3] = system: HepG2 cells; assay: Neutral red cell viability assay; format: cell-based; conditions: Homo sapiens
Source text: The neutral red (NR) cytotoxicity assay is a chemosensitivity assay for measuring cell survival/viability, based on the ability of viable cells to incorporate and bind neutral red, a supravital dye. NR is a weak cationic dye that readily penetrates cell membranes by non-ionic diffusion, accumulating intracellularly in lysosomes, where it binds with anionic sites in the lysosomal matrix. Alterations of the cell surface or the sensitive lysosomal membrane lead to lysosomal fragility and other changes that gradually become irreversible. Such changes brought about by the action of xenobiotics result in a decreased uptake and binding of NR. It is thus possible to distinguish between viable, damaged, or dead cells. (Babich, H et al, 1990)
Three different cell lines HepG2, WRL-68 and Clone 9 cell lines were used in the experiment. HepG2 is a human hepatoblastoma cell line. It is a well known cell model in anti-HCC studies (Alshatwi A A, et al, 2006). WRL-68 is a human normal liver embryo cell line that has a morphologic structure similar to hepatocytes and hepatic primary cultures (Gutierrez-Ruiz, et al, 1994). This cell line was used as the control. Clone 9 is the rat Sprague Dawley (SD) liver normal cell line. In the in vivo studies, sinigrin (SIN) would be applied to the SD rat animal model. The employment of this cell line in the cell viability study was to test if SIN would be toxic in the rat animal model.
HepG2, WRL-68 and Clone 9 cells were grown in complete culture medium (RPMI or DMEM), trypsinized and washed. Ten thousand cells of each cell type were seeded in 96-well plates. After 24 hours of pre-incubation, cells were treated with different concentrations of SIN and incubated for 72 hours. After incubation, cells were harvested and washed twice with 1×PBS buffer. Fifty microliters of Neutral Red solution were added to each well. The whole plate was placed into an incubator at 37° C. with 5% CO2. After incubation for 1 hour, the plate was washed twice with 1×PBS buffer, and completely dried in a 60° C. oven overnight. […] The color was measured at OD540nm.

[4] = HepG2, 72 h, read-out: viability of HepG2 cells

`C=CC/C(=N/OS(=O)(=O)[O-])S[C@@H]1OC(CO)[C@@H](O)C(O)C1O.[K+]` (stereo partly shown) [SIN, sinigrin] was tested, and the “rat serum ALT level” value ([1]; positive control 215% of negative control) was “levels similar to those in the negative control”, the “rat serum AST level” value ([1]; positive control 265% of negative control) was “levels similar to those in the negative control” and the “percentage of liver weight and liver weight index vs negative group” value [2] was “only slightly higher”. For the same compound, the “visible tumors on liver (direct observation)” value [2] was “no visible tumor”, the viability at 25 µM [3, 4] was roughly 70% and the viability at 1000 µM [3, 4] was roughly 35%. The IC50 ([3]; HepG2, 72 hours, neutral red) was less than 250 µM.
